This note sets out measurements from patent publication US8236761B2, “C-Met receptor regulation by angiotensin IV (AT4) receptor ligands” (Washington State University Research Foundation, priority 2006, dated 2012).

Non-standard residues stand in square brackets, D forms with d. No end group written: not given here. Nle = CCCC[C@H](N)C(=O)O

In data set [1] the test system is MDCK cells. Kind of data set: HGF-induced MDCK cell scattering (coverslip assay). The data set is classed as cell-based, canine. As for the experimental part: FIG. 8A: Confluent MDCK cells on coverslips were treated with HGF (110 pM), or HGF (110 pM)+Norleual (100 pM) for 48 hours. Digital images of top, bottom, left, and right sectors were acquired and the scattering of cells In each digital image was scored in blinded fashion and normalized to control scores. The difference between HGF and HGF+Norleual groups was significant (*p=0.0245, n=3). Error bars indicate±SEM. FIG. 8B: MDCK cells were plated on 6 mm diameter coverslips in DMEM 10% FBS and grown to 100% confluency. The coverslips were then transferred to fresh 6 well plates and the cells were serum-deprived for 24 hours to synchronize the cells in the same growth state. Thereafter, the 20 ng/ml of HGF alone and in the presence of 10^−10 M Norleual in a 1% FBS DMEM was added to the cells. […] This ring was photographed and loaded on to NIH image J. Using NIH image J, the pixel count was determined for each ring. […]
Scattering assay. […] Scattering was scored in blinded fashion by comparison to a set of calibration scattering images by two investigators. […]
To explore the physiological significance of the angiotensin-like factor Norleual's ability to depress c-Met signaling, Norleual's effect on HGF induced cell scattering of Madin-Darby canine kidney (MDCK) cells was assessed with the coverslip assay (Miao et al., 2003 J. Cell Biol. 162: 1281-1292). […]

Data set [2] relates to Erk1/2, Akt. Kind of data set: Erk1/2 and Akt phosphorylation in HGF-treated B16-F10 cells (scratch wound assay). The data set is classed as cell-based, murine. As for the experimental part:
Immunoprecipitation and Western blotting. Cells were serum starved for two hours in DMEM before treatment. Cells were harvested using RIPA lysis buffer (Upstate Biotechnol. Inc., Lake Placid, N.Y.) with phosphatase inhibitor cocktails 1 and 2 (Sigma, St Louis, Mo., USA). Protein concentration was determined using the BCA assay (Pierce, Rockford, Ill., USA). Lysates were incubated with antibody overnight at 4° C. Immunoprecipitation controls received mouse non-specific Ig (Upstate). Proteins were captured with protein-A agarose (Upstate) and were washed with PBS. Proteins were resolved using SDS-PAGE electrophoresis (Criterion, BioRad, Hercules, Calif., USA), transferred to nitrocellulose, and incubated with appropriate antibodies. Proteins were visualized using the Supersignal West Pico Chemiluminescent Substrate system (Pierce). The film images were digitized and analyzed using TotalLab® software (AmershamPharmacia/GE HealthCare, Piscataway, N.J.).
In addition, molecules associated with proliferation and migration signal transduction in B16-F10 melanoma cells were investigated in the scratch wound assay. HGF alone promoted enhanced phosphorylation of the signal transduction molecules Erk1/2, an effect that was attenuated by the presence of Norleual (FIG. 11B).

The test system of data set [3] is B16-F0 murine melanoma. The experiment in a line: Primary tumor melanoma cancer model. The data set is classed as in vivo, C57BL/6 mice. Conditions: male C57 mice, Elvax pellet intramuscular, 21 μg/kg/day.

For “Nle-Tyr-Leu-ψ-His-Pro-Phe ([Nle]YLHPF; also: reduced peptide bond psi(CH2NH2) between Leu and His) [Norleual]”, the “HGF-induced MDCK cell scattering” value in data set [1] (HGF 110 pM + Norleual 100 pM, 48 hours, FIG. 8A) was “inhibited”. In data set [1] (HGF 20 ng/ml, COMPOUND 2 10^−10M, FIG. 7), the “Hepatocyte growth factor-dependent cell scattering” value was “inhibited”. Also, in data set [2], the “HGF-enhanced phosphorylation of Erk1/2” value is reported as “attenuated” and the “HGF-induced Akt phosphorylation” value was “did not affect”. Further, the “Primary B16-F0 murine melanoma growth” value in data set [3] is “inhibited”.
